These results are taken from patent US10293004B2, “Butyrate-producing bacterium and use thereof” (KABUSHIKI KAISHA YAKULT HONSHA, priority 2014, dated 2019).

For assay [1], the system named is mouse C57BL/6J. Briefly: Multiple oral dose test of YIT 12355 to mouse given indigestible saccharide. In kind it is in vivo. Particulars: for Total cell count: DAPI counting method; for Cell count, A. hadrus: quantitative PCR, multiple oral dose; for Occupancy: cell count of YIT 12355/total cell count ×100; for Detected count: mice with A. hadrus detected / mice in group. The method, then:
Mice were acclimatized and raised with F2 feed (manufactured by Funabashi Farm Co., Ltd.) for 1 week and then divided into 6 groups such that the average body weight was almost equal among these groups. Then, a control diet (Table 7) was administered thereto for 1 week and replaced with purified feed containing an indigestible material, which was then administered thereto for 2 weeks. A live cell suspension of YIT 12355 was orally administered twice a week a total of 4 times using a probe. At the final day of the test, each mouse was dissected, and the cecal and colonic contents were recovered and examined for an organic acid concentration. Also, the cell count of YIT 12355 in the intestinal tract contents was measured by quantitative PCR, while change in the whole intestinal flora was examined by use of PCR-DGGE (denaturing gradient gel electrophoresis). • Animal used: mouse C57BL/6J (4 weeks old; CLEA Japan, Inc.) • Test period: 3 weeks • Indigestible saccharide used: lactitol and maltitol • Dose of indigestible saccharide: 5% (w/w) • Administered bacterial strain: YIT 12355 • Dose of bacterium: live cell dose: 3.9 to 6.9×10^8 cfu/mouse (administration of a suspension in physiological saline using a probe). Total cell count including dead cells: […] cfu/mouse • Group configuration: 6 groups (5 mice/group) At the 2nd week of administration of the test feed, each mouse was anesthetized with diethyl ether and euthanized by cervical dislocation. After abdominal section, cecal tissues and colonic tissues were excised to recover their contents. The cecal and colonic contents were diluted 10-fold with PBS and subjected to DNA extraction. DNA was extracted by the bead-phenol method from the 10-fold diluted solution of the intestinal tract contents. Specifically, 0.3 g of glass beads (diameter: 0.1 mm), 300 μL of a Tris-SDS solution (a mixed solution of 250 mL of 200 mM Tris-HCl, 80 mM EDTA, pH 9.0, and 50 mL of 10% SDS) and 500 μL of TE saturated phenol were added to 200 μL of the diluted solution of the intestinal tract contents, and the mixture was vigorously shaken for 30 seconds using FASTPREP FP120 cell disruptive equipment (power level: 5.0). After centrifugation at 15,000 rpm for 5 minutes, 400 μL of a phenol/chloroform/isoamyl alcohol (25:24:1) solution was added to 400 μL of the supernatant, and the mixture was shaken for 45 seconds using FASTPREP FP120 cell disruptive equipment (power level: 4.0). After centrifugation at 15,000 rpm for 5 minutes, 25 μL of 3 M sodium acetate (pH 5.4) and 250 μL of isopropanol were added to 250 μL of the supernatant and mixed therewith. After centrifugation at 15,000 rpm for 5 minutes, the supernatant was removed, and 500 μL of 70% ethanol was added thereto, followed by centrifugation again at 15,000 rpm for 5 minutes. The supernatant was removed, and the pellets were dried and dissolved in 1.0 mL of a TE buffer. The obtained DNA solution was diluted 10-fold with purified water to prepare a template DNA solution. For quantitative PCR, 7500 Real-Time PCR System (manufactured by Life Technologies Corp.) was used. The total volume of the reaction solution was set to 20 μL, and SYBR Premix Ex Taq II (Takara Bio Inc.) containing 1.0 μM each of primers, and the template DNA solution were mixed and then subjected to quantitative PCR. The reaction conditions involved heating at 95° C. for 2 minutes, followed by 40 repetitive cycles each involving reactions at 95° C. for 20 seconds, 55° C. for 20 seconds and 72° C. for 50 seconds, and subsequent reaction at 72° C. for 3 minutes. For subsequent Tm value analysis, after reaction at 60° C. for 1 minute, the temperature was elevated at a temperature gradient of 0.2° C./sec to 95° C. during which the fluorescence of SYBR Green I was measured to measure the dissociation temperature (Tm) of the double strand of the amplification product. […]

Assay [2] concerns mouse C57BL/6J. Briefly: Single oral dose test of YIT 12355 to mouse given indigestible saccharide. In kind it is in vivo. Particulars: cecum, single oral dose. The method, then:
Mice were acclimatized and raised with F2 feed for 1 week and then divided into 4 groups such that the average body weight was almost equal among these groups. A control diet (Table 12) was administered thereto for 1 week. Then, the control diet was administered to the control group (−/− group) and the AH/− group for 2 weeks while purified feed containing maltitol (MAL-containing diet) was administered to the −/MAL group and the AH/MAL group for 2 weeks. A live cell suspension of YIT 12355 was administered at a single dose using a probe after the administration of the control diet for 1 week. At the final day of the test, each mouse was dissected, and the cecal contents were recovered. The cecal contents were subjected to the cell count measurement of YIT 12355. • Test material: Maltitol (5% mixed feed administration) • Administered bacterial strain: YIT 12355 • Animal species: Mouse C57BL/6J (4 weeks old; CLEA Japan, Inc.) • Group configuration: 7 mice×4 groups The bacterial solution (viable count: 3.1×10^9 cfu/mL, total cell count: 1.9×10^10 cells/mL) prepared in the preceding paragraph 2) was orally administered at a single dose of 0.2 mL (viable count: 6.2×10^8 cfu/mouse, total cell count: 3.8×10^9 cells/mouse) to each mouse using a probe. To the control group and the −/MAL group, 0.2 mL of physiological saline was administered instead of the bacterial solution. […] Then, the cecal contents were recovered. The cecal contents were diluted 10-fold with PBS and subjected to DNA extraction. DNA was extracted by the bead-phenol method described in the paragraph 4)a) of Example 5 from the 10-fold diluted solution of the intestinal tract contents. The cell count of YIT 12355 was measured by quantitative PCR using the obtained DNA as a template and the bacterial species-specific primers described in the paragraph 4)a) of Example 5. After fixation of a portion of the 10-fold diluted solution of the intestinal tract contents in a 4% solution of paraformaldehyde in PBS, the total cell count was measured by the DAPI counting method. The cell count of YIT 12355 was divided by the total cell count to calculate an occupancy (%). (Occupancy of YIT 12355) (%)=(Cell count of YIT 12355/Total cell count)×100 (Expression 5)

Assay [3] in a line: Turbidity (OD660) after anaerobic culture of bacterial strains in PYGA, PYSA or PYXA medium. The method, then:
(§1) A frozen stock solution of each bacterial strain (a 10% (w/v) skim milk-2% sodium glutamate solution in which bacterial cells were suspended) (cell count: 2.0 to 5.5×10^10 cells/mL) was thawed, and the solution was inoculated at 1% to 4 mL of a PY liquid medium supplemented with 33 mM sodium acetate and 0.5 (w/v) % glucose (PYGA medium), followed by anaerobic culture at 37° C. for 24 hours. After the culture, the culture solution was inoculated at 1% to a fresh PYGA medium, followed by anaerobic culture at 37° C. for 24 hours. After the culture, the turbidity (OD660) of the culture solution was measured. Then, the culture solution was inoculated at 1% to a PY medium containing 0.5 (w/v) % L-sorbose or D-xylitol and 33 mM sodium acetate (the medium containing L-sorbose: PYSA, and the medium containing D-xylitol: PYXA), followed by anaerobic culture at 37° C. for 24 hours. Then, the turbidity (OD660) was measured.

Assay [4] in a line: Biochemical properties: saccharide fermentability (API-ZYM, Rapid ID32A API, API KENKI 20A). The arrangement: key: +: positive reaction; −: negative reaction; +^w: weak reaction. An excerpt: (§2) Commercially available API-ZYM, Rapid ID32A API, and API KENKI 20A (SYSMEX bioMerieux Co., Ltd.) were used in the testing of biochemical properties of various bacterial strains. The testing method followed the product manuals.

The nature of assay [5]: Production of butyrate by each bacterial strain from L-sorbose and D-xylitol (ion-exclusion HPLC). The conditions noted are these: 24 hours, minus PYA blank. The method, then:
as §1
After the completion of the culture, the organic acid concentration in the culture solution was quantified by ion-exclusion HPLC. In this operation, a culture solution in a PY medium supplemented with sodium acetate but without L-sorbose or D-xylitol (PYA medium) was used as a blank.
(HPLC Analysis Conditions) • Eluent: 15 mM perchloric acid-7% acetonitrile • pH adjuster: 15 mM perchloric acid-60 mM • tris(hydroxymethyl)aminomethane-7% acetonitrile • Separation column: Organic acid analysis column RSpak KC- • 811×2 (manufactured by Showa Denko K.K.) • Column temperature: 42° C. • Injected sample volume: 10 μL • Flow rate: 1.0 mL/min • Analysis time: 35 min • Detector: Waters 432 electric conductivity detector • Cell temperature: 45° C.
The amount of butyrate produced was calculated according to (Expression 1). Amount of butyrate produced=(Amount of butyrate produced by culture for 24 hours in a PYSA or PYXA medium)−(Amount of butyrate produced by culture for 24 hours in a PYA medium) (Expression 1)

A short description of assay [6]: Biochemical properties: enzymatic activity (API-ZYM, Rapid ID32A API, API KENKI 20A). On the set-up: key: +: positive reaction; −: negative reaction; +^w: weak reaction.
Text: as §2

As for `OC[C@@H](O)[C@@H](O[C@@H]1O[C@H](CO)[C@H](O)[C@H](O)[C@H]1O)[C@H](O)[C@@H](O)CO` [—/LAC group, lactitol], in the assay on mouse C57BL/6J [1] (Cecal contents), the Total cell count was determined as 11.1 ± 0.1 log10 cells/g contents; the “Cell count, A. hadrus” value amounted to 7.2 log10 cells/g contents; the Occupancy was determined as 0.014%; the Detected count result is “(1/5)”. Further, in the assay on mouse C57BL/6J [1] (Colonic contents), the Total cell count is on record as 11.1 ± 0.1 log10 cells/g contents, the Occupancy is 0.000% and the Detected count result was “(0/5)”.

In the case of `OC[C@@H](O)[C@@H](O[C@H]1O[C@H](CO)[C@@H](O)[C@H](O)[C@H]1O)[C@H](O)[C@@H](O)CO` [—/MAL group, maltitol], the Total cell count with mouse C57BL/6J [2] (DAPI counting method) is given as 10.9 ± 0.1 log10 (cells/g contents); in the assay on mouse C57BL/6J [1] (Cecal contents), 11.0 ± 0.1 log10 cells/g contents; in the assay with mouse C57BL/6J [1] (Colonic contents), 11.0 ± 0.1 log10 cells/g contents. Also, in the assay on mouse C57BL/6J [2] (quantitative PCR), the “Cell count, A. hadrus YIT 12355” value is on record as <6.0 log10 (cells/g contents). Moreover, the Occupancy is listed as 0.0% with mouse C57BL/6J [2] (ratio to total cell count), 0.001% with mouse C57BL/6J [1] (Cecal contents) and 0.000% in the assay on mouse C57BL/6J [1] (Colonic contents). Further, the “Cell count, A. hadrus” value with mouse C57BL/6J [1] (Cecal contents) worked out at 6.1 log10 cells/g contents. The results for the Detected count result with mouse C57BL/6J [1] (Cecal contents) and in the assay on mouse C57BL/6J [1] (Colonic contents) were “(1/5)” and “(0/5)”, respectively.

Consider “Anaerostipes hadrus (Eubacterium hadrum) YIT 10092^T (DSM 3319^T) [reference compound]”, for which the “Turbidity (OD660)” value in assay [3] (after anaerobic culture at 37° C. for 24 hours in PYGA liquid medium) is 2.80. In assay [3] (anaerobic culture at 37° C. for 24 hours of 1% inoculum in PYSA (L-sorbose)), the “Turbidity (OD660)” value worked out at 2.56. For the same molecule, in assay [3] (anaerobic culture at 37° C. for 24 hours of 1% inoculum in PYXA (D-xylitol)), the “Turbidity (OD660)” value stood at 0.11. Further, in assay [4], the Aesculin result is “−”, the D-Cellobiose entry is “+”, the D-Mannitol result is recorded as “+” and the D-Raffinose result is “−”. Besides, in assay [4], the D-Xylose entry was “+”, the Glycerol result was “−”, the L-Arabinose result was “+” and the L-Rhamnose entry is “−”. Further, in assay [4], the L-Sorbitol entry is listed as “+”, the Mallose entry was “+^w” and the Salicin entry was “+”. Further, the “Amount of butyrate produced” value in assay [5] (D-Xylitol 0.5 (w/v) %, PYXA medium) was -0.1 mmol/L. Moreover, the “Amount of butyrate produced” value in assay [5] (L-Sorbose 0.5 (w/v) %, PYSA medium) is 9.7 mmol/L. Moreover, in assay [6], the Acid phosphatase result was “+”, the Alkaline phosphatase entry is “−”, the “Esterase (C4)” value was “+” and the Naphthol-AS-B1-phosphohydrolase entry is “+”. In assay [6], the α-Glucosidase result is given as “−”, the β-Galactosidase entry is “+” and the β-Galactosidase-6-phosphate entry is “+”.
